Results: patent publication US7166620B2 (dated 2007)

Compound CO/C=C(/C(=O)OC)c1ccccc1COc1nc(C(F)(F)F)sc1C has a melting point of 59 °C.
